According to PubChem BioAssay AID328 (DTP/NCI, 2004):
“And” between values parts separate entries of the source, which are not always exact repeats. Identical values can stand only once. Toxic doses and inconclusive results are not listed.

Tested on: BDF1 mice, P388 leukemia ip, median survival T/C
Assay: NCI In Vivo Anticancer Drug Screen. Data for tumor model P388 Leukemia (intraperitoneal) in B6D2F1 (BDF1) mice
Details: endpoint: median survival time, higher = longer survival
How it was run: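 Steps: implant the tumour, treat one group with compound and another with vehicle, record survival, then divide treated by control.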

[1] = dose: 100.0 mg/kg/injection, schedule: Q01DX009 (ip), vehicle: saline with Tween-80
[2] = dose: 200.0 mg/kg/injection, schedule: Q01DX009 (ip), vehicle: saline with Tween-80
[3] = dose: 50.0 mg/kg/injection, schedule: Q01DX009 (ip), vehicle: saline with Tween-80
[4] = dose: 100.0 mg/kg/injection, schedule: Q04DX003 (ip), vehicle: saline
[5] = dose: 200.0 mg/kg/injection, schedule: Q04DX003 (ip), vehicle: saline
[6] = dose: 400.0 mg/kg/injection, schedule: Q01DX009 (ip), vehicle: saline with Tween-80
[7] = dose: 100.0 mg/kg/injection, schedule: Q01DX001 (ip), vehicle: Klucel (hydroxypropylcellulose) (HPC)
[8] = dose: 100.0 mg/kg/injection, schedule: Q01DX009 (ip), vehicle: Klucel (hydroxypropylcellulose) (HPC)
[9] = dose: 100.0 mg/kg/injection, schedule: Q04DX003 (ip), vehicle: Klucel (hydroxypropylcellulose) (HPC)
[10] = dose: 200.0 mg/kg/injection, schedule: Q01DX001 (ip), vehicle: Klucel (hydroxypropylcellulose) (HPC)
[11] = dose: 200.0 mg/kg/injection, schedule: Q01DX009 (ip), vehicle: Klucel (hydroxypropylcellulose) (HPC)
[12] = dose: 200.0 mg/kg/injection, schedule: Q04DX003 (ip), vehicle: Klucel (hydroxypropylcellulose) (HPC)
[13] = dose: 400.0 mg/kg/injection, schedule: Q01DX001 (ip), vehicle: Klucel (hydroxypropylcellulose) (HPC)
[14] = dose: 400.0 mg/kg/injection, schedule: Q01DX009 (ip), vehicle: Klucel (hydroxypropylcellulose) (HPC)
[15] = dose: 400.0 mg/kg/injection, schedule: Q04DX003 (ip), vehicle: Klucel (hydroxypropylcellulose) (HPC)
[16] = dose: 100.0 mg/kg/injection, schedule: Q04DX003 (ip), vehicle: saline with Tween-80
[17] = dose: 200.0 mg/kg/injection, schedule: Q04DX003 (ip), vehicle: saline with Tween-80
[18] = dose: 400.0 mg/kg/injection, schedule: Q04DX003 (ip), vehicle: saline with Tween-80

O=C(O)c1cc(C(=O)O)cc(S(=O)(=O)F)c1
T/C (dose: 75.0 mg/kg/injection, schedule: Q04DX003 (ip), vehicle: saline with Tween-80): 104 % of control | T/C [1]: 105 % of control | T/C (dose: 150.0 mg/kg/injection, schedule: Q04DX003 (ip), vehicle: saline with Tween-80): 108 % of control | T/C [2]: 95 % of control | T/C (dose: 300.0 mg/kg/injection, schedule: Q04DX003 (ip), vehicle: saline with Tween-80): 104 % of control

C=CC(C)C(C)(OCc1ccccc1)C(=O)O (stereo not drawn)
T/C (dose: 50.0 mg/kg/injection, schedule: Q01DX005 (ip), vehicle: saline with Tween-80): 100 % of control | T/C (dose: 100.0 mg/kg/injection, schedule: Q01DX005 (ip), vehicle: saline with Tween-80): 113 % of control | T/C (dose: 200.0 mg/kg/injection, schedule: Q01DX005 (ip), vehicle: saline with Tween-80): 106 % of control

CCOC(=O)C1=C(C)NC(C)=C(C(=O)OCC)C1c1ccccc1
T/C [3]: 95 % of control | T/C [2]: 95 % of control

O=C(C=C(C(F)(F)F)C(F)(F)F)c1ccc(Cl)cc1
T/C (dose: 6.25 mg/kg/injection, schedule: Q01DX009 (ip), vehicle: saline with Tween-80): 100 % of control | T/C (dose: 12.5 mg/kg/injection, schedule: Q01DX009 (ip), vehicle: saline with Tween-80): 100 % of control | T/C (dose: 25.0 mg/kg/injection, schedule: Q01DX009 (ip), vehicle: saline with Tween-80): 118 % of control

O=P(N1CC1)(N1CC1)N1CCc2ccccc21
T/C (dose: 9.0 mg/kg/injection, schedule: Q01DX009 (ip), vehicle: saline): 91 % of control | T/C (dose: 13.0 mg/kg/injection, schedule: Q01DX009 (ip), vehicle: saline): 104 % of control | T/C (dose: 20.0 mg/kg/injection, schedule: Q01DX009 (ip), vehicle: saline): 104 % of control | T/C (dose: 30.0 mg/kg/injection, schedule: Q04DX003 (ip), vehicle: saline): 114 % of control | T/C (dose: 33.0 mg/kg/injection, schedule: Q01DX009 (ip), vehicle: saline): 157 % of control | T/C (dose: 44.0 mg/kg/injection, schedule: Q04DX003 (ip), vehicle: saline): 117 % of control and 119 % of control | T/C (dose: 50.0 mg/kg/injection, schedule: Q01DX009 (ip), vehicle: saline): 166 % of control and 173 % of control | T/C (dose: 75.0 mg/kg/injection, schedule: Q01DX009 (ip), vehicle: saline): 176 % of control | T/C [4]: 170 % of control and 176 % of control | T/C (dose: 150.0 mg/kg/injection, schedule: Q04DX003 (ip), vehicle: saline): 255 % of control and 195 % of control | T/C [5]: 96 % of control

CCCCCCCCCCC[N+](C)(C)CCCCCC[N+](C)(C)CCCCCCCCCCC
T/C (dose: 1.56 mg/kg/injection, schedule: Q01DX009 (ip), vehicle: saline): 90 % of control and 108 % of control | T/C (dose: 3.12 mg/kg/injection, schedule: Q01DX009 (ip), vehicle: saline): 103 % of control | T/C (dose: 3.13 mg/kg/injection, schedule: Q01DX009 (ip), vehicle: saline): 102 % of control and 118 % of control | T/C (dose: 6.25 mg/kg/injection, schedule: Q01DX009 (ip), vehicle: saline): 115 % of control and 124 % of control | T/C (dose: 12.5 mg/kg/injection, schedule: Q01DX009 (ip), vehicle: saline): 93 % of control and 109 % of control

Cc1ccc2oc(-c3ccccc3)c(O)c(=O)c2c1
T/C [1]: 95 % of control | T/C [2]: 100 % of control | T/C [6]: 90 % of control

Nc1nc(N)c2cc(CNc3ccc(Cl)c(C(=O)NC(CC(=O)O)C(=O)O)c3)cnc2n1 (stereo not drawn)
T/C (dose: 100.0 mg/kg/injection, schedule: Q01DX009 (ip), vehicle: saline): 100 % of control | T/C [4]: 102 % of control | T/C (dose: 200.0 mg/kg/injection, schedule: Q01DX009 (ip), vehicle: saline): 100 % of control | T/C [5]: 99 % of control | T/C (dose: 400.0 mg/kg/injection, schedule: Q01DX009 (ip), vehicle: saline): 108 % of control | T/C (dose: 400.0 mg/kg/injection, schedule: Q04DX003 (ip), vehicle: saline): 94 % of control

CCOC12c3c4cccc3C(=O)c3cccc(c31)C(=O)c1cccc(c12)C4=O
T/C [7]: 95 % of control | T/C [8]: 100 % of control | T/C [9]: 100 % of control | T/C [10]: 100 % of control | T/C [11]: 100 % of control | T/C [12]: 100 % of control | T/C [13]: 109 % of control | T/C [14]: 90 % of control | T/C [15]: 91 % of control

CN(C)C(=S)SSC(=S)N(C)C
T/C (dose: 25.0 mg/kg/injection, schedule: Q04DX003 (ip), vehicle: Klucel (hydroxypropylcellulose) (HPC)): 109 % of control | T/C (dose: 50.0 mg/kg/injection, schedule: Q04DX003 (ip), vehicle: Klucel (hydroxypropylcellulose) (HPC)): 118 % of control | T/C [7]: 100 % of control | T/C [9]: 113 % of control | T/C [10]: 109 % of control | T/C [13]: 113 % of control

O=C(Nc1ccc(C2=NCCN2)cc1)C1CCC(C(=O)Nc2ccc(C3=NCCN3)cc2)CC1 (stereo not drawn)
T/C [16]: 150 % of control | T/C [17]: 179 % of control | T/C (dose: 264.0 mg/kg/injection, schedule: Q04DX003 (ip), vehicle: saline with Tween-80): 228 % of control and 200 % of control | T/C [18]: 225 % of control and 229 % of control and 240 % of control | T/C (dose: 600.0 mg/kg/injection, schedule: Q04DX003 (ip), vehicle: saline with Tween-80): 240 % of control and 245 % of control

CC(CC(=O)O)(CC(=O)O)c1ccccc1
T/C [8]: 100 % of control | T/C [9]: 104 % of control | T/C [11]: 95 % of control | T/C [12]: 95 % of control | T/C [14]: 100 % of control | T/C [15]: 90 % of control

O=C1N=C(C(F)(F)F)N=C1c1[nH]c(C(F)(F)F)nc1O
T/C [3]: 111 % of control | T/C [1]: 102 % of control | T/C [16]: 100 % of control | T/C [2]: 102 % of control | T/C [17]: 102 % of control | T/C [6]: 116 % of control | T/C [18]: 98 % of control

C=C1[C@@H](C)[C@H]2[C@H](Cc3ccccc3)NC(=O)[C@]23OC(=O)/C=C/[C@H](O)CCC[C@@H](C)C/C=C/[C@H]3[C@@H]1O
T/C (dose: 0.25 mg/kg/injection, schedule: Q01DX005 (ip), vehicle: saline with Tween-80): 86 % of control | T/C (dose: 0.5 mg/kg/injection, schedule: Q01DX005 (ip), vehicle: saline with Tween-80): 100 % of control | T/C (dose: 1.0 mg/kg/injection, schedule: Q01DX005 (ip), vehicle: saline with Tween-80): 100 % of control | T/C (dose: 1.0 mg/kg/injection, schedule: Q04DX002 (ip), vehicle: saline): 109 % of control | T/C (dose: 2.0 mg/kg/injection, schedule: Q01DX005 (ip), vehicle: saline with Tween-80): 107 % of control | T/C (dose: 2.0 mg/kg/injection, schedule: Q04DX002 (ip), vehicle: saline): 109 % of control | T/C (dose: 4.0 mg/kg/injection, schedule: Q01DX005 (ip), vehicle: saline with Tween-80): 115 % of control | T/C (dose: 8.0 mg/kg/injection, schedule: Q01DX005 (ip), vehicle: saline with Tween-80): 117 % of control | T/C (dose: 8.0 mg/kg/injection, schedule: Q04DX002 (ip), vehicle: saline): 109 % of control | T/C (dose: 16.0 mg/kg/injection, schedule: Q04DX002 (ip), vehicle: saline): 109 % of control | T/C (dose: 32.0 mg/kg/injection, schedule: Q04DX002 (ip), vehicle: saline): 100 % of control

C=CC(=O)[O][Pb]([CH3])([CH3])[CH3]
T/C (dose: 0.75 mg/kg/injection, schedule: Q01DX009 (ip), vehicle: saline): 98 % of control | T/C (dose: 1.5 mg/kg/injection, schedule: Q01DX009 (ip), vehicle: saline): 96 % of control

NC(=O)c1cc(OCc2ccccc2)nc2nc(Cl)nc(N)c12
T/C [3]: 100 % of control | T/C [1]: 96 % of control | T/C [2]: 110 % of control

CCOC(=O)CCC(C)(c1ccc(O)cc1)c1ccc(O)cc1
T/C (dose: 50.0 mg/kg/injection, schedule: Q01DX009 (ip), vehicle: gum acacia): 95 % of control | T/C (dose: 100.0 mg/kg/injection, schedule: Q01DX009 (ip), vehicle: gum acacia): 108 % of control | T/C (dose: 100.0 mg/kg/injection, schedule: Q04DX003 (ip), vehicle: gum acacia): 104 % of control | T/C (dose: 200.0 mg/kg/injection, schedule: Q01DX009 (ip), vehicle: gum acacia): 100 % of control | T/C (dose: 200.0 mg/kg/injection, schedule: Q04DX003 (ip), vehicle: gum acacia): 104 % of control | T/C (dose: 400.0 mg/kg/injection, schedule: Q04DX003 (ip), vehicle: gum acacia): 104 % of control
